Source: PubChem BioAssay AID330 (DTP/NCI, 2004)
Where “and” joins values, the source holds several entries; their conditions need not be identical. Equal entries are not always repeated. Inconclusive results and toxic doses are left out.

System: P388 leukemia ip, CD2F1 mice, survival T/C
Assay: NCI In Vivo Anticancer Drug Screen. Data for tumor model P388 Leukemia (intraperitoneal) in CD2F1 (CDF1) mice
Conditions: endpoint: median survival time, higher = longer survival
Summary of the method: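 Mice carrying the transplanted tumor received test compound or vehicle. Survival was recorded in each group, and the value is the treated-group measurement divided by that of the vehicle-treated control group.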

[1] = dose: 50.0 mg/kg/injection, schedule: Q01DX009 (ip), vehicle: saline
[2] = dose: 50.0 mg/kg/injection, schedule: Q01DX005 (ip), vehicle: Klucel (hydroxypropylcellulose) (HPC)
[3] = dose: 100.0 mg/kg/injection, schedule: Q01DX005 (ip), vehicle: Klucel (hydroxypropylcellulose) (HPC)
[4] = dose: 12.5 mg/kg/injection, schedule: Q01DX005 (ip), vehicle: Klucel (hydroxypropylcellulose) (HPC)
[5] = dose: 200.0 mg/kg/injection, schedule: Q01DX005 (ip), vehicle: Klucel (hydroxypropylcellulose) (HPC)
[6] = dose: 25.0 mg/kg/injection, schedule: Q04DX002 (ip), vehicle: saline with Tween-80
[7] = dose: 50.0 mg/kg/injection, schedule: Q04DX002 (ip), vehicle: saline with Tween-80
[8] = dose: 200.0 mg/kg/injection, schedule: Q04DX002 (ip), vehicle: saline with Tween-80

CCNC(=O)CCC(NS(=O)(=O)c1ccc(C)cc1)C(=O)O (centres undefined)
T/C (dose: 100.0 mg/kg/injection, schedule: Q04DX002 (ip), vehicle: Klucel (hydroxypropylcellulose) (HPC)): 100 % of control
T/C (dose: 200.0 mg/kg/injection, schedule: Q04DX002 (ip), vehicle: Klucel (hydroxypropylcellulose) (HPC)): 100 % of control
T/C (dose: 400.0 mg/kg/injection, schedule: Q04DX002 (ip), vehicle: Klucel (hydroxypropylcellulose) (HPC)): 105 % of control

CC1OC=CC(OC2OC(CO)C(O)C(O)C2O)C1O (centres undefined)
T/C (dose: 21.25 mg/kg/injection, schedule: Q01DX005 (ip), vehicle: saline): 109 % of control
T/C (dose: 42.5 mg/kg/injection, schedule: Q01DX005 (ip), vehicle: saline): 116 % of control
T/C (dose: 85.0 mg/kg/injection, schedule: Q01DX005 (ip), vehicle: saline): 108 % of control
T/C (dose: 170.0 mg/kg/injection, schedule: Q01DX005 (ip), vehicle: saline): 101 % of control

CC(C)(C)S(=O)(=O)C(C)(C)C
T/C (dose: 25.0 mg/kg/injection, schedule: Q01DX001 (ip), vehicle: saline with Tween-80): 109 % of control
T/C (dose: 50.0 mg/kg/injection, schedule: Q01DX001 (ip), vehicle: saline with Tween-80): 111 % of control
T/C (dose: 100.0 mg/kg/injection, schedule: Q01DX001 (ip), vehicle: saline with Tween-80): 95 % of control
T/C (dose: 200.0 mg/kg/injection, schedule: Q01DX001 (ip), vehicle: saline with Tween-80): 100 % of control

CCN(CC)C(=O)C(N)Cc1ccc(OC)c(N(CCCl)CCCl)c1 (centres undefined)
T/C (dose: 6.25 mg/kg/injection, schedule: Q01DX009 (ip), vehicle: saline): 113 % of control
T/C (dose: 6.25 mg/kg/injection, schedule: Q01DX009 (ip), vehicle: suspension in saline): 116 % of control
T/C (dose: 25.0 mg/kg/injection, schedule: Q01DX009 (ip), vehicle: saline): 150 % of control
T/C (dose: 25.0 mg/kg/injection, schedule: Q01DX009 (ip), vehicle: suspension in saline): 150 % of control
T/C [1]: 177 % of control
T/C (dose: 50.0 mg/kg/injection, schedule: Q01DX009 (ip), vehicle: suspension in saline): 172 % of control

COC(=O)C[CH2][Sn]([CH3])([CH3])[CH2]CC(=O)OC
T/C [2]: 104 % of control
T/C [3]: 100 % of control

C=C1C(=O)O[C@@H]2C[C@H](C)[C@@H]3CC[C@H](O)[C@@]3(CO)C[C@H]12
T/C [4]: 102 % of control
T/C (dose: 25.0 mg/kg/injection, schedule: Q01DX005 (ip), vehicle: Klucel (hydroxypropylcellulose) (HPC)): 102 % of control
T/C [2]: 103 % of control and 104 % of control
T/C [3]: 114 % of control
T/C [5]: 122 % of control

CCc1c2c(cc3c1[nH]c1ccccc13)C(=O)OC2=O
T/C [2]: 95 % of control
T/C [3]: 86 % of control
T/C [5]: 98 % of control

CC(=O)O.CC(=O)O.CC(=O)O.CC(=O)O.O=C(O)C1C[N-]CC(C(=O)O)C1.O=C(O)C1C[N-]CC(C(=O)O)C1.[Cu+].[Cu+] (centres undefined)
T/C (dose: 3.12 mg/kg/injection, schedule: Q01DX005 (ip), vehicle: suspension in saline): 95 % of control
T/C (dose: 6.25 mg/kg/injection, schedule: Q01DX005 (ip), vehicle: suspension in saline): 99 % of control
T/C (dose: 12.5 mg/kg/injection, schedule: Q01DX005 (ip), vehicle: suspension in saline): 94 % of control

Cc1nn(C(=S)S)c(C)c1N=Nc1ccccc1C(F)(F)F
T/C (dose: 3.12 mg/kg/injection, schedule: Q04DX002 (ip), vehicle: saline with Tween-80): 99 % of control and 102 % of control
T/C (dose: 6.25 mg/kg/injection, schedule: Q04DX002 (ip), vehicle: saline with Tween-80): 100 % of control
T/C (dose: 12.5 mg/kg/injection, schedule: Q04DX002 (ip), vehicle: saline with Tween-80): 108 % of control and 94 % of control
T/C [6]: 103 % of control and 86 % of control and 89 % of control
T/C [7]: 96 % of control
T/C [8]: 89 % of control
T/C (dose: 400.0 mg/kg/injection, schedule: Q04DX002 (ip), vehicle: saline with Tween-80): 105 % of control

C=C1C(=O)O[C@H]2/C=C(/C)C3=CC(=O)[C@@](C)(C[C@@H](OC(=O)/C(C)=C\C)C12)O3 (some centres undefined)
T/C (dose: 1.56 mg/kg/injection, schedule: Q01DX005 (ip), vehicle: Klucel (hydroxypropylcellulose) (HPC)): 102 % of control
T/C (dose: 3.12 mg/kg/injection, schedule: Q01DX005 (ip), vehicle: Klucel (hydroxypropylcellulose) (HPC)): 105 % of control
T/C (dose: 6.25 mg/kg/injection, schedule: Q01DX005 (ip), vehicle: Klucel (hydroxypropylcellulose) (HPC)): 105 % of control
T/C [4]: 89 % of control and 96 % of control

COC1=CC2OC3OC(=O)CC3C2C(OCc2ccccc2)=C1 (centres undefined)
T/C (dose: 60.0 mg/kg/injection, schedule: Q01DX005 (ip), vehicle: saline with Tween-80): 91 % of control
T/C (dose: 120.0 mg/kg/injection, schedule: Q01DX005 (ip), vehicle: saline with Tween-80): 88 % of control
T/C (dose: 240.0 mg/kg/injection, schedule: Q01DX005 (ip), vehicle: saline with Tween-80): 90 % of control

CC1CCCN2C(=O)CN(N3CCOCC3)CC(=O)N12 (centres undefined)
T/C [6]: 100 % of control
T/C (dose: 25.0 mg/kg/injection, schedule: Q04DX002 (ip), vehicle: saline): 95 % of control
T/C [7]: 94 % of control
T/C (dose: 50.0 mg/kg/injection, schedule: Q04DX002 (ip), vehicle: saline): 95 % of control
T/C (dose: 100.0 mg/kg/injection, schedule: Q04DX002 (ip), vehicle: saline with Tween-80): 99 % of control
T/C (dose: 100.0 mg/kg/injection, schedule: Q04DX002 (ip), vehicle: saline): 102 % of control
T/C [8]: 94 % of control
T/C (dose: 200.0 mg/kg/injection, schedule: Q04DX002 (ip), vehicle: saline): 94 % of control

CCCC1CC[N-]CC1.CCCC1CC[N-]CC1.CCCC1CC[N-]CC1.CCCC1CC[N-]CC1.CS(C)=O.CS(C)=O.[Cl-].[Cl-].[Cl-].[Cl-].[Cl][Rh][Cl].[Rh+3]
T/C (dose: 3.13 mg/kg/injection, schedule: Q01DX009 (ip), vehicle: saline): 117 % of control
T/C (dose: 12.5 mg/kg/injection, schedule: Q01DX009 (ip), vehicle: saline with Tween-80): 123 % of control

CC(=O)CC(=O)CCCCCCCCCCCC(=O)O
T/C (dose: 50.0 mg/kg/injection, schedule: Q01DX009 (ip), vehicle: saline with Tween-80): 94 % of control
T/C (dose: 100.0 mg/kg/injection, schedule: Q01DX009 (ip), vehicle: saline with Tween-80): 98 % of control
T/C (dose: 200.0 mg/kg/injection, schedule: Q01DX009 (ip), vehicle: saline with Tween-80): 103 % of control

CC(CC/C=C/CO)C1CC(OS(=O)(=O)O)C2(O)C1(C)CCC1C3CCC(O)C(O)C3C(O)CC12O (centres undefined)
T/C (dose: 5.0 mg/kg/injection, schedule: Q01DX005 (ip), vehicle: Klucel (hydroxypropylcellulose) (HPC)): 100 % of control
T/C (dose: 10.0 mg/kg/injection, schedule: Q01DX005 (ip), vehicle: Klucel (hydroxypropylcellulose) (HPC)): 106 % of control
T/C (dose: 20.0 mg/kg/injection, schedule: Q01DX005 (ip), vehicle: Klucel (hydroxypropylcellulose) (HPC)): 98 % of control
T/C (dose: 40.0 mg/kg/injection, schedule: Q01DX005 (ip), vehicle: Klucel (hydroxypropylcellulose) (HPC)): 95 % of control

O=C(COP(=O)(OCC(=O)Oc1ccc([N+](=O)[O-])cc1)Oc1ccc([N+](=O)[O-])cc1)Oc1ccc([N+](=O)[O-])cc1
T/C (dose: 25.0 mg/kg/injection, schedule: Q01DX009 (ip), vehicle: other): 102 % of control
T/C (dose: 50.0 mg/kg/injection, schedule: Q01DX009 (ip), vehicle: other): 98 % of control
T/C (dose: 100.0 mg/kg/injection, schedule: Q01DX009 (ip), vehicle: other): 93 % of control
T/C (dose: 200.0 mg/kg/injection, schedule: Q01DX009 (ip), vehicle: other): 91 % of control
T/C (dose: 400.0 mg/kg/injection, schedule: Q01DX009 (ip), vehicle: other): 108 % of control

NC(=Nc1ccccc1)c1ccccn1
T/C [1]: 95 % of control
T/C (dose: 100.0 mg/kg/injection, schedule: Q01DX009 (ip), vehicle: saline): 94 % of control
T/C (dose: 200.0 mg/kg/injection, schedule: Q01DX009 (ip), vehicle: saline): 95 % of control
